From ChEMBL document CHEMBL1641534, “Synthesis and antibacterial activity study of a novel class of cationic anthraquinone analogs” (Bioorg Med Chem, 2011)
In brackets after ≈: the same amount, converted by molar mass. Activity calls are given as the source filed them. The calls are words filed in the database; no cut-off is given here.

What was measured:
[1] = tested on: Escherichia coli; assay: Antibacterial activity against Escherichia coli ATCC 25922 after 12 to 18 hrs by twofold dilution method; format: functional
[2] = tested on: Klebsiella pneumoniae; assay: Antibacterial activity against Klebsiella pneumoniae ATCC 13883 after 12 to 18 hrs by twofold dilution method; format: functional
[3] = tested on: Pseudomonas aeruginosa; assay: Antibacterial activity against Pseudomonas aeruginosa ATCC 27853 after 12 to 18 hrs by twofold dilution method; format: functional
[4] = tested on: Enterococcus faecalis; assay: Antibacterial activity against Enterococcus faecalis ATCC 29212 after 12 to 18 hrs by twofold dilution method; format: functional
[5] = tested on: Enterococcus faecalis; assay: Antibacterial activity against vancomycin-resistant Enterococcus faecalis ATCC 51299 after 12 to 18 hrs by twofold dilution method; format: functional
[6] = tested on: Mycolicibacterium smegmatis; assay: Antibacterial activity against Mycobacterium smegmatis ATCC 14468 after 12 to 18 hrs by twofold dilution method; format: functional
[7] = tested on: Staphylococcus aureus; assay: microbe, parasite or virus in culture; format: functional; conditions: ATCC 25923
Description: (§1) Antibacterial activity against Staphylococcus aureus ATCC 25923 after 12 to 18 hrs by twofold dilution method

[8] = tested on: Staphylococcus aureus; assay: microbe, parasite or virus in culture; format: functional; conditions: ATCC 33591
Description: (§2) Antibacterial activity against methicillin-resistant Staphylococcus aureus ATCC 33591 after 12 to 18 hrs by twofold dilution method

[9] = Solubility of the compound in aqueous medium; format: physicochemical; conditions: buffer
[10] = tested on: Escherichia coli; assay: Antibacterial activity against Escherichia coli ATCC 25922 by agar diffusion assay; format: functional, organism-based
[11] = tested on: Staphylococcus aureus; assay: Antibacterial activity against Staphylococcus aureus ATCC 25923 by agar diffusion assay; format: functional, organism-based
[12] = tested on: Mycolicibacterium smegmatis; conditions: ATCC 14468
[13] = tested on: Escherichia coli; conditions: ATCC 25922
[14] = tested on: Staphylococcus aureus; conditions: ATCC 25923
Description: as §1

[15] = tested on: Klebsiella pneumoniae; conditions: ATCC 13883
[16] = tested on: Staphylococcus aureus; conditions: ATCC 33591
Description: as §2

[17] = tested on: Pseudomonas aeruginosa; conditions: ATCC 27853
[18] = tested on: Enterococcus faecalis; conditions: ATCC 29212
[19] = tested on: Enterococcus faecalis; conditions: ATCC 51299

Compound	MIC [1] [µg/mL]	MIC [2] [µg/mL]	MIC [3] [µg/mL]	MIC [4] [µg/mL]	MIC [5] [µg/mL]	MIC [6] [µg/mL]	MIC [7] [µg/mL]	MIC [8] [µg/mL]	solubility [9]	Activity [10]	Activity [11]	further results
CN[C@H](CC(C)C)C(=O)N[C@H]1C(=O)N[C@@H](CC(N)=O)C(=O)N[C@H]2C(=O)N[C@H]3C(=O)N[C@H](C(=O)N[C@H](C(=O)O)c4cc(O)cc(O)c4-c4cc3ccc4O)[C@H](O)c3ccc(c(Cl)c3)Oc3cc2cc(c3O[C@@H]2O[C@H](CO)[C@@H](O)[C@H](O)[C@H]2O[C@H]2C[C@](C)(N)[C@H](O)[C@H](C)O2)Oc2ccc(cc2Cl)[C@H]1O [VANCOMYCIN]	≥ 250	≥ 250	≥ 250	1 (≈ 0.69 µM)	125 (≈ 86.3 µM)							
C[n+]1nn(C2CCNCC2)c2c1C(=O)c1ccccc1C2=O.[Cl-]	32	64	64	≥ 250	≥ 250	16	2	2				
CCCCCCCCCCCCCCCCn1nnc2c1C(=O)c1ccccc1C2=O									Insoluble	inactive	inactive	
CC(C)(C)OC(=O)N1CCC(n2nnc3c2C(=O)c2ccccc2C3=O)CC1									Insoluble	inactive	inactive	
O=C1c2ccccc2C(=O)c2c1nnn2Cc1ccccc1									Insoluble	inactive	inactive	
NC[C@@H]1O[C@H](O[C@H]2[C@@H](O)[C@H](O[C@@H]3[C@@H](O)[C@H](N)C[C@H](N)[C@H]3O[C@H]3O[C@H](CN)[C@@H](O)[C@H](O)[C@H]3N)O[C@@H]2CO)[C@H](N)[C@@H](O)[C@@H]1O [FRAMYCETIN]	4 (≈ 6.51 µM)	2 (≈ 3.25 µM)	64 (≈ 104 µM)	16 (≈ 26 µM)	125 (≈ 203 µM)		1 (≈ 1.63 µM)	125 (≈ 203 µM)				
O=C1c2ccccc2C(=O)c2c1nnn2Cc1ccccn1									Insoluble	inactive	inactive	
CCCCCn1nnc2c1C(=O)c1ccccc1C2=O									Insoluble	inactive	inactive	
NCC[C@H](O)C(=O)N[C@@H]1C[C@H](N)[C@@H](O[C@H]2O[C@H](CN)[C@@H](O)[C@H](O)[C@H]2O)[C@H](O)[C@H]1O[C@H]1O[C@H](CO)[C@@H](O)[C@H](N)[C@H]1O [AMIKACIN]	1 (≈ 1.71 µM)	1 (≈ 1.71 µM)	0.25 (≈ 0.427 µM)	32 (≈ 54.6 µM)	≥ 250	0.25 (≈ 0.427 µM)	0.5 (≈ 0.854 µM)	16 (≈ 27.3 µM)				
CCCCCCCCCCCCn1n[n+](C)c2c1C(=O)c1ccccc1C2=O.[Cl-]	2	2	16	4	4	1	0.032	0.25				
CCCCn1n[n+](C)c2c1C(=O)c1ccccc1C2=O.[Cl-]	16	32	≥ 250	≥ 250	≥ 250	16	2	1				
NC[C@H]1O[C@H](O[C@H]2[C@H](O)[C@@H](O[C@H]3O[C@H](CO)[C@@H](O)[C@H](N)[C@H]3O)[C@H](N)C[C@@H]2N)[C@H](O)[C@@H](O)[C@@H]1O [KANAMYCIN]	2 (≈ 4.13 µM)	0.5 (≈ 1.03 µM)	125 (≈ 258 µM)			1 (≈ 2.06 µM)	1 (≈ 2.06 µM)	125 (≈ 258 µM)				
CCCCCCCCCCCCCCCC[N+](C)(C)Cc1ccccc1.[Cl-] [CETALKONIUM CHLORIDE]							2	1				
CCCCn1nnc2c1C(=O)c1ccccc1C2=O									Insoluble	inactive	inactive	
CCCCCCCCCCCCn1nnc2c1C(=O)c1ccccc1C2=O									Insoluble	inactive	inactive	
C[n+]1nn(Cc2ccccn2)c2c1C(=O)c1ccccc1C2=O.[Cl-]	16	16	≥ 250	≥ 250	≥ 250	16	2	2				
CCCCCn1n[n+](C)c2c1C(=O)c1ccccc1C2=O.[Cl-]	8	32	≥ 250	≥ 250	125	8	2	1				
CCn1n[n+](C)c2c1C(=O)c1ccccc1C2=O.[Cl-]	16	32	≥ 250	≥ 250	≥ 250	16	1	1				
CCCCCCCCn1nnc2c1C(=O)c1ccccc1C2=O									Insoluble	inactive	inactive	
Cn1n[n+](C)c2c1C(=O)c1ccccc1C2=O.[Cl-]	32	64	125	≥ 250	125	32	4	4				
hexadecyltrimethylammonium bromide												MIC [12]: 1 µg/mL; MIC [13]: 1 µg/mL; MIC [14]: 0.5 µg/mL; MIC [15]: 1 µg/mL; MIC [16]: 2 µg/mL; MIC [17]: 16 µg/mL; MIC [18]: 2 µg/mL; MIC [19]: 4 µg/mL
Cn1nnc2c1C(=O)c1ccccc1C2=O									Insoluble	inactive	inactive	
C[n+]1nn(Cc2ccccc2)c2c1C(=O)c1ccccc1C2=O.[Cl-]	8	8	125	≥ 250	≥ 250	8	2	0.5				
CCCCCCCCn1n[n+](C)c2c1C(=O)c1ccccc1C2=O.[Cl-]	8	8	≥ 250	125	125	1	0.032	0.5				
CCn1nnc2c1C(=O)c1ccccc1C2=O									Insoluble	inactive	inactive	
